Results reported in patent US20220160901A1, “Stimuli-Responsive Compositions, Imaging Systems, and Methods for Using the Same for Biomedical Applications” (The Regents of the University of California, priority 2019, published 2022).

Assay: T1 values measured using NMR
Set-up: unit not given here

Fe(Me-bik)3](BF4)2.25H2O
T1 at 23° C. (1 mg/mL): 2.9433 | T1 at 40° C. (1 mg/mL): 4.2093 | T1 at 60° C. (1 mg/mL): 5.3784 | T1 at 23° C. (2 mg/mL): 2.8944 | T1 at 40° C. (2 mg/mL): 3.9614 | T1 at 60° C. (2 mg/mL): 4.9954 | T1 at 23° C. (4 mg/mL): 2.7392 | T1 at 40° C. (4 mg/mL): 3.4784 | T1 at 60° C. (4 mg/mL): 4.2761 | T1 at 23° C. (8 mg/mL): 2.7413 | T1 at 40° C. (8 mg/mL): 3.434 | T1 at 60° C. (8 mg/mL): 4.172
